Experimental data taken from US8076487B2, “Pyridone derivative and herbicide” (Kumiai Chemical Industry Co., Ltd., priority 2006, dated 2011).

Tests used:
Format in all cases: in vivo
[1] = test system: Japanese bulrush (Scirpus juncoides Roxb.); assay: Test Example 1: herbicidal effect by soil application to paddy field; details: paddy field soil application; active ingredient 1,000 g per 1 hectare; wettable powder added dropwise to water surface the day after sowing; examined on the 21st day after application
Procedure, shortened: (§1)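 Plants were sown in flooded (3 cm) paddy soil and evaluated for herbicidal effect 21 days after soil application in a greenhouse.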

[2] = test system: early watergrass (Echinochloa oryzicola Vasing); assay: as above; details: paddy field soil application; active ingredient 1,000 g per 1 hectare; wettable powder added dropwise to water surface the day after sowing; examined on the 21st day after application
Procedure, shortened: as §1

[3] = test system: heartshape false pickerelweed (Monochoria vaginalis (Burm.f.) C.Presl); assay: as above; details: paddy field soil application; active ingredient 1,000 g per 1 hectare; wettable powder added dropwise to water surface the day after sowing; examined on the 21st day after application
Procedure, shortened: as §1

[4] = test system: barnyardgrass (Echinochloa crus-galli (L.) P. Beauv. var. crus-galli); assay: Test Example 2: herbicidal effect by soil application to upland field; details: soil surface spray, upland field soil, 1,000 g active ingredient per hectare, 21st day after application
Procedure, shortened: (§2)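 After sowing and covering, the soil received an even aqueous spray of wettable powder at a rate of 1,000 g active ingredient/ha (1,000 L/ha). Ratings of herbicidal effect followed a standard scale 21 days post-treatment, with plants held in a greenhouse.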

[5] = test system: green foxtail (Setaria viridis (L.) P. Beauv.); assay: as above; details: soil surface spray, upland field soil, 1,000 g active ingredient per hectare, 21st day after application
Procedure, shortened: as §2

[6] = test system: slender amaranth (Amaranthus viridis L.); assay: as above; details: soil surface spray, upland field soil, 1,000 g active ingredient per hectare, 21st day after application
Procedure, shortened: as §2

[7] = test system: velvetleaf (Abutilon theophrasti medicus); assay: as above; details: soil surface spray, upland field soil, 1,000 g active ingredient per hectare, 21st day after application
Procedure, shortened: as §2

[8] = test system: barnyardgrass (Echinochloa crus-galli (L.) P. Beauv. var. crus-galli); assay: Test Example 3: herbicidal effect by application to upland field (foliage treatment); details: 14th day after application; for herbicidal effect, Barnyardgrass: foliage treatment, 1,000 g active ingredient per 1 hectare, greenhouse; for herbicidal effect (index), Barnyardgrass: foliage treatment, plants grown two weeks, 1,000 g active ingredient per hectare
Procedure, shortened: (§3)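 Field-soil pots sown with the four weed species and grown two weeks in a greenhouse, then sprayed over the whole plant with wettable powder in water at 1,000 g active ingredient/ha in 1,000 L/ha. Herbicidal effect scored against a rating standard 14 days after treatment.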

[9] = test system: green foxtail (Setaria viridis (L.) P. Beauv.); assay: as above; details: 14th day after application; for herbicidal effect, Green Foxtail: foliage treatment, 1,000 g active ingredient per 1 hectare, greenhouse; for herbicidal effect (index), Green Foxtail: foliage treatment, plants grown two weeks, 1,000 g active ingredient per hectare
Procedure, shortened: as §3

[10] = test system: slender amaranth (Amaranthus viridis L.); assay: as above; details: 14th day after application; for herbicidal effect, Slender Amaranth: foliage treatment, 1,000 g active ingredient per 1 hectare, greenhouse; for herbicidal effect (index), Slender Amaranth: foliage treatment, plants grown two weeks, 1,000 g active ingredient per hectare
Procedure, shortened: as §3

[11] = test system: velvetleaf (Abutilon theophrasti medicus); assay: as above; details: 14th day after application; for herbicidal effect, Velvetleaf: foliage treatment, 1,000 g active ingredient per 1 hectare, greenhouse; for herbicidal effect (index), Velvetleaf: foliage treatment, plants grown two weeks, 1,000 g active ingredient per hectare
Procedure, shortened: as §3

Row | Structure (SMILES) | herbicidal effect, Scirpus juncoides Roxb. [1] | herbicidal effect, Echinochloa oryzicola Vasing [2] | herbicidal effect, Monochoria vaginalis (Burm. f.) C. Presl [3] | herbicidal effect (index), Barnyardgrass [4] | herbicidal effect (index), Green Foxtail [5] | herbicidal effect (index), Slender Amaranth [6] | herbicidal effect (index), Velvetleaf [7] | herbicidal effect, Barnyardgrass [8] | herbicidal effect, Green Foxtail [9] | herbicidal effect, Slender Amaranth [10] | herbicidal effect, Velvetleaf [11] | herbicidal effect (index), Barnyardgrass [8] | herbicidal effect (index), Green Foxtail [9] | herbicidal effect (index), Slender Amaranth [10] | herbicidal effect (index), Velvetleaf [11]
1 | CC1(C)CCC(O)=C(C(=O)c2ccc(C(F)(F)F)n(-c3cc(F)cc(F)c3)c2=O)C1=O [II-40] | 5 (90% or more of herbicidal effect and crop phytotoxicity) | 5 (90% or more of herbicidal effect and crop phytotoxicity) | 5 (90% or more of herbicidal effect and crop phytotoxicity) | 5 (90% or more of herbicidal effect and crop phytotoxicity) | 5 (90% or more of herbicidal effect and crop phytotoxicity) | 5 (90% or more of herbicidal effect and crop phytotoxicity) | 5 (90% or more of herbicidal effect and crop phytotoxicity) | 5 (90% or more of herbicidal effect and crop phytotoxicity) | 4 (70 to less than 90% of herbicidal effect and crop phytotoxicity) | 5 (90% or more of herbicidal effect and crop phytotoxicity) | 5 (90% or more of herbicidal effect and crop phytotoxicity) |  |  |  | 
2 | CC(C)Cn1c(C(F)(F)F)ccc(C(=O)C2=C(O)CCCC2=O)c1=O [I-6] | 5 (90% or more of herbicidal effect and crop phytotoxicity) | 5 (90% or more of herbicidal effect and crop phytotoxicity) | 5 (90% or more of herbicidal effect and crop phytotoxicity) | 5 (90% or more of herbicidal effect and crop phytotoxicity) | 5 (90% or more of herbicidal effect and crop phytotoxicity) | 5 (90% or more of herbicidal effect and crop phytotoxicity) | 5 (90% or more of herbicidal effect and crop phytotoxicity) |  |  |  |  | 5 (90% or more of herbicidal effect and crop phytotoxicity) | 5 (90% or more of herbicidal effect and crop phytotoxicity) | 5 (90% or more of herbicidal effect and crop phytotoxicity) | 5 (90% or more of herbicidal effect and crop phytotoxicity)
3 | O=C1CCCC(O)=C1C(=O)c1ccc(C(F)(F)F)n(CS(=O)(=O)CC2CC2)c1=O [I-58] | 5 (90% or more of herbicidal effect and crop phytotoxicity) | 5 (90% or more of herbicidal effect and crop phytotoxicity) | 5 (90% or more of herbicidal effect and crop phytotoxicity) | 5 (90% or more of herbicidal effect and crop phytotoxicity) | 5 (90% or more of herbicidal effect and crop phytotoxicity) | 5 (90% or more of herbicidal effect and crop phytotoxicity) | 5 (90% or more of herbicidal effect and crop phytotoxicity) |  |  |  |  | 5 (90% or more of herbicidal effect and crop phytotoxicity) | 5 (90% or more of herbicidal effect and crop phytotoxicity) | 5 (90% or more of herbicidal effect and crop phytotoxicity) | 5 (90% or more of herbicidal effect and crop phytotoxicity)
4 | CCC(C)n1c(C(F)(F)F)ccc(C(=O)c2cnn(C)c2O)c1=O (stereo not shown) [IV-8] | 5 (90% or more of herbicidal effect and crop phytotoxicity) | 5 (90% or more of herbicidal effect and crop phytotoxicity) | 5 (90% or more of herbicidal effect and crop phytotoxicity) | 5 (90% or more of herbicidal effect and crop phytotoxicity) | 5 (90% or more of herbicidal effect and crop phytotoxicity) | 5 (90% or more of herbicidal effect and crop phytotoxicity) | 5 (90% or more of herbicidal effect and crop phytotoxicity) | 5 (90% or more of herbicidal effect and crop phytotoxicity) | 4 (70 to less than 90% of herbicidal effect and crop phytotoxicity) | 5 (90% or more of herbicidal effect and crop phytotoxicity) | 5 (90% or more of herbicidal effect and crop phytotoxicity) |  |  |  | 
5 | O=C1CCCC(O)=C1C(=O)c1ccc(C(F)(F)F)n(CC2CCOC2)c1=O (stereo not shown) [I-154] | 5 (90% or more of herbicidal effect and crop phytotoxicity) | 5 (90% or more of herbicidal effect and crop phytotoxicity) | 5 (90% or more of herbicidal effect and crop phytotoxicity) | 4 (70 to less than 90% of herbicidal effect and crop phytotoxicity) | 3 (50 to less than 70% of herbicidal effect and crop phytotoxicity) | 5 (90% or more of herbicidal effect and crop phytotoxicity) | 5 (90% or more of herbicidal effect and crop phytotoxicity) | 4 (70 to less than 90% of herbicidal effect and crop phytotoxicity) | 5 (90% or more of herbicidal effect and crop phytotoxicity) | 5 (90% or more of herbicidal effect and crop phytotoxicity) | 5 (90% or more of herbicidal effect and crop phytotoxicity) |  |  |  | 
6 | O=C1CCCC(O)=C1C(=O)c1ccc(C(F)(F)F)n(-c2ccc(C(F)(F)F)cc2)c1=O [I-86] | 5 (90% or more of herbicidal effect and crop phytotoxicity) | 5 (90% or more of herbicidal effect and crop phytotoxicity) | 5 (90% or more of herbicidal effect and crop phytotoxicity) | 5 (90% or more of herbicidal effect and crop phytotoxicity) | 5 (90% or more of herbicidal effect and crop phytotoxicity) | 5 (90% or more of herbicidal effect and crop phytotoxicity) | 5 (90% or more of herbicidal effect and crop phytotoxicity) |  |  |  |  | 5 (90% or more of herbicidal effect and crop phytotoxicity) | 5 (90% or more of herbicidal effect and crop phytotoxicity) | 5 (90% or more of herbicidal effect and crop phytotoxicity) | 5 (90% or more of herbicidal effect and crop phytotoxicity)
7 | CCCS(=O)(=O)Oc1c(C(=O)c2ccc(C(F)(F)F)n(CC3CC(C)=NO3)c2=O)cnn1CC (stereo not shown) [IV-106] | 5 (90% or more of herbicidal effect and crop phytotoxicity) | 5 (90% or more of herbicidal effect and crop phytotoxicity) | 5 (90% or more of herbicidal effect and crop phytotoxicity) | 5 (90% or more of herbicidal effect and crop phytotoxicity) | 5 (90% or more of herbicidal effect and crop phytotoxicity) | 5 (90% or more of herbicidal effect and crop phytotoxicity) | 5 (90% or more of herbicidal effect and crop phytotoxicity) | 5 (90% or more of herbicidal effect and crop phytotoxicity) | 5 (90% or more of herbicidal effect and crop phytotoxicity) | 5 (90% or more of herbicidal effect and crop phytotoxicity) | 5 (90% or more of herbicidal effect and crop phytotoxicity) |  |  |  | 
8 | O=C1CCCC(O)=C1C(=O)c1ccc(C(F)(F)F)n(-c2ccc(Cl)c(Cl)c2)c1=O [I-98] | 5 (90% or more of herbicidal effect and crop phytotoxicity) | 5 (90% or more of herbicidal effect and crop phytotoxicity) | 5 (90% or more of herbicidal effect and crop phytotoxicity) | 5 (90% or more of herbicidal effect and crop phytotoxicity) | 5 (90% or more of herbicidal effect and crop phytotoxicity) | 5 (90% or more of herbicidal effect and crop phytotoxicity) | 5 (90% or more of herbicidal effect and crop phytotoxicity) |  |  |  |  | 5 (90% or more of herbicidal effect and crop phytotoxicity) | 5 (90% or more of herbicidal effect and crop phytotoxicity) | 5 (90% or more of herbicidal effect and crop phytotoxicity) | 5 (90% or more of herbicidal effect and crop phytotoxicity)
